# Active and inactive are the calls of the source.
# Key:
# Mu-type opioid receptor = Mu-type opioid receptor (Homo sapiens, UniProt P35372); test: (§1) Counterscreen for agonists of heterodimerization of the mu 1 (OPRM1) and delta 1 (OPRD1) opioid receptors: Luminescence-based cell-based high throughput dose response assay to identify agonists of OPRM1 homodimerization.; type: functional
# Vero = test: cells; type: functional; settings: Chlorocebus sabaeus
# [1] = biological target: T1, Short transient receptor potential channel 4 (Mus musculus, UniProt Q9QUQ5); test: calcium entry via TRPC4 opening agents – cell-based, HEK293 TRPC4/mu-opioid, Fluo-4 calcium, dose response (AID 434937); type: functional
# T1 sequence (Q9QUQ5 whole entry): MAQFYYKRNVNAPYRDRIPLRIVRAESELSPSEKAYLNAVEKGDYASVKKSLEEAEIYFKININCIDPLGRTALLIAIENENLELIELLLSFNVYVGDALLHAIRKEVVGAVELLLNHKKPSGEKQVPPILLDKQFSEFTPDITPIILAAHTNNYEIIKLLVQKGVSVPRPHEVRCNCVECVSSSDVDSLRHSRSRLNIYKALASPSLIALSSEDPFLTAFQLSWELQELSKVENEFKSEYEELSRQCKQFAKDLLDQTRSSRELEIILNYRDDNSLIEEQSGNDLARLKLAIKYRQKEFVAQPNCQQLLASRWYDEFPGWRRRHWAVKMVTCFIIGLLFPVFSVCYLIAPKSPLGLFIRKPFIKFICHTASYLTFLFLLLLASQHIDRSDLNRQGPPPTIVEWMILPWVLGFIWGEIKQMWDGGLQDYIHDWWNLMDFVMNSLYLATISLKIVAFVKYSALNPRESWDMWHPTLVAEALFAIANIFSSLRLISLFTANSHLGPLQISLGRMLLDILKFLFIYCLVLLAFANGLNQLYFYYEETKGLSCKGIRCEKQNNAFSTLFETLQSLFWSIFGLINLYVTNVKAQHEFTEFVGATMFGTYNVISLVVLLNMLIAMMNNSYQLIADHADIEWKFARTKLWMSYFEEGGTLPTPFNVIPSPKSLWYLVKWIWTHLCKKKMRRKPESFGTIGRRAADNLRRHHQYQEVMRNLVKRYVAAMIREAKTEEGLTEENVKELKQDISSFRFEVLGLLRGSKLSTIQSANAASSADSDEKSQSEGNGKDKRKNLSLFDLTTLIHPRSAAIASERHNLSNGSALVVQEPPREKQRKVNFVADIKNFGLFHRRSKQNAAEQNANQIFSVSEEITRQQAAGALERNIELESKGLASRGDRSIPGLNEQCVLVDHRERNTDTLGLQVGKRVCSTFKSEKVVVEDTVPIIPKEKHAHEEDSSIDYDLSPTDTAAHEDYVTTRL
# [2] = biological target: Delta-type opioid receptor (Homo sapiens, UniProt P41143); test: as §1, with “of OPRD1” for “of OPRM1”, “homodimerization. [Related pubchem assays (depositor defined):AID504326, AID504355, AID504692, AID504904, AID504905]” for “homodimerization.”; type: functional
# [3] = biological target: T2, DNA repair protein RAD52 homolog (Homo sapiens, UniProt P43351); type: functional, biochemical
# T2 sequence (P43351 whole entry): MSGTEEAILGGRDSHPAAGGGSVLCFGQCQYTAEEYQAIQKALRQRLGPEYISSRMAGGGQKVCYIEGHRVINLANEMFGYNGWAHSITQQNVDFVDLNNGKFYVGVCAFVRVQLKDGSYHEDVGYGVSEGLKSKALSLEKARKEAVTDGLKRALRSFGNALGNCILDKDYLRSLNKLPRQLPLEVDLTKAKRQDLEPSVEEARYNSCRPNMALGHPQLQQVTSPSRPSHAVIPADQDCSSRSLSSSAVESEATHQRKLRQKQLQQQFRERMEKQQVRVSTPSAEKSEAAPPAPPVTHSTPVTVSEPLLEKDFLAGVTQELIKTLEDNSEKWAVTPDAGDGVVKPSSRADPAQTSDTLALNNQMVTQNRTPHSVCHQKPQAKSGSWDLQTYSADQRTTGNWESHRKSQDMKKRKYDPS
# Galanin receptor type 2 = Galanin receptor type 2 (Homo sapiens, UniProt O43603); test: Dose Response cell-based high-throughput screening assay to identify agonists of galanin receptor 2 (GALR2). [Related pubchem assays: 864 ]; type: functional
# [4] = biological target: 5-hydroxytryptamine receptor 5A (Homo sapiens, UniProt P47898); test: Counterscreen for agonists of OPRM1-OPRD1 heterodimerization: luminescence-based cell-based high throughput dose response assay to identify agonists of 5-hydroxytryptamine (serotonin) 5A receptor (HTR5A). [Related pubchem assays (depositor defined):AID504326, AID504355, AID504692, AID504904, AID504905]; type: functional
# Aminopeptidase N = biological target: T3, Aminopeptidase N (Plasmodium falciparum FcB1/Columbia, UniProt O96935); test: malaria alanyl aminopeptidase activity blockers – biochemical, fluorogenic H-Leu-NHMec substrate, 1536-well (AID 1445); set-up: species or system Plasmodium falciparum 3D7, 3D7
# T3 sequence (O96935 whole entry): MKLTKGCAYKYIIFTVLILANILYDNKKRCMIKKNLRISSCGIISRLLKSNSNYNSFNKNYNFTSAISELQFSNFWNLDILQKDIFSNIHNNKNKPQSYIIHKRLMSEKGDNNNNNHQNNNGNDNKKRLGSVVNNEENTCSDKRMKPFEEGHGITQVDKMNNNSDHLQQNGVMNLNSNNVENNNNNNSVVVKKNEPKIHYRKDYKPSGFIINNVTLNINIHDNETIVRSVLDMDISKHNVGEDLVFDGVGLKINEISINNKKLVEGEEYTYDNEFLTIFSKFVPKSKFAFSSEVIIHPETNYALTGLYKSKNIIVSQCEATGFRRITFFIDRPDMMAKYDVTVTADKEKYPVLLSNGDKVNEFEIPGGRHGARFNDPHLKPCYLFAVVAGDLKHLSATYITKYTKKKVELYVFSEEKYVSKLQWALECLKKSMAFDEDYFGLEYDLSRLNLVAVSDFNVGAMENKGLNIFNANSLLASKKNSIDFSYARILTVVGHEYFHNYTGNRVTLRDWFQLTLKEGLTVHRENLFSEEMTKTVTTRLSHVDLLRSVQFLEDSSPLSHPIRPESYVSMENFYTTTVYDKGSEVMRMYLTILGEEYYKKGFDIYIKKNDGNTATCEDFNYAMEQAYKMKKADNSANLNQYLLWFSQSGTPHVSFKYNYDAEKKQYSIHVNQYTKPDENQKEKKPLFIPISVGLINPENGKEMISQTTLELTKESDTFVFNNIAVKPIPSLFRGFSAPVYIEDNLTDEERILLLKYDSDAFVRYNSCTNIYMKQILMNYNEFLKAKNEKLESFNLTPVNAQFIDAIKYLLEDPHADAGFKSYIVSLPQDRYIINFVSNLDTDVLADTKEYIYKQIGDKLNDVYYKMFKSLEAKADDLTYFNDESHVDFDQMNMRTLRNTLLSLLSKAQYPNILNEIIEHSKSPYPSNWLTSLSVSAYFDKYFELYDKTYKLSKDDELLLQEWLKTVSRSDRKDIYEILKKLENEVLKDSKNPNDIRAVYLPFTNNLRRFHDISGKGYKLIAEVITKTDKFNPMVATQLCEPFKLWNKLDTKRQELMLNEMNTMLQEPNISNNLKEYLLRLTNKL
# [5] = DRD fibroblast viability loss – cell-based, non-viral oncogenic, luminescence, dose response (AID 1934); type: functional; settings: Homo sapiens
# [6] = Fluorescence-based cell-based high throughput dose response assay for inhibitors of the interaction of nucleotide-binding oligomerization domain containing 2 (NOD2) and the receptor-interacting serine-threonine kinase 2 (RIPK2).; type: functional; settings: Homo sapiens
# [7] = Luminescent dose response cell-based high throughput screening assay for inhibitors of the Janus kinase 2 mutant JAK2V617F. [Related pubchem assays: 1446 (Primary screen.), 1521 (Confirmation assay.), 1486 (Counter screen.)]; type: functional
# BJ [8] = test: BJ-TERT-LT-ST fibroblast viability loss – cell-based, RAS-independent, luminescence, dose response (AID 1935); type: functional; settings: Homo sapiens;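 also: BJ fibroblasts immortalized with TERT plus LT and ST oncogenes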
# cells [9] = type: functional, cell-based
# cells [10] = type: functional, cell-based; remark: listed apart in the source
# BJ [11] = test: cells; type: functional, cell-based; settings: Homo sapiens
# BJ [12] = test: BJ-TERT fibroblast viability loss – cell-based, RAS-independent, luminescence, dose response (AID 1933); type: functional; settings: Homo sapiens
# Hexokinase HKDC1 = biological target: T4, Hexokinase HKDC1 (Homo sapiens, UniProt Q2TB90); test: inhibition of HKDC1 glucose phosphorylation – biochemical, W721R variant, dose response (AID 504729); type: functional
# T4 sequence (Q2TB90 whole entry): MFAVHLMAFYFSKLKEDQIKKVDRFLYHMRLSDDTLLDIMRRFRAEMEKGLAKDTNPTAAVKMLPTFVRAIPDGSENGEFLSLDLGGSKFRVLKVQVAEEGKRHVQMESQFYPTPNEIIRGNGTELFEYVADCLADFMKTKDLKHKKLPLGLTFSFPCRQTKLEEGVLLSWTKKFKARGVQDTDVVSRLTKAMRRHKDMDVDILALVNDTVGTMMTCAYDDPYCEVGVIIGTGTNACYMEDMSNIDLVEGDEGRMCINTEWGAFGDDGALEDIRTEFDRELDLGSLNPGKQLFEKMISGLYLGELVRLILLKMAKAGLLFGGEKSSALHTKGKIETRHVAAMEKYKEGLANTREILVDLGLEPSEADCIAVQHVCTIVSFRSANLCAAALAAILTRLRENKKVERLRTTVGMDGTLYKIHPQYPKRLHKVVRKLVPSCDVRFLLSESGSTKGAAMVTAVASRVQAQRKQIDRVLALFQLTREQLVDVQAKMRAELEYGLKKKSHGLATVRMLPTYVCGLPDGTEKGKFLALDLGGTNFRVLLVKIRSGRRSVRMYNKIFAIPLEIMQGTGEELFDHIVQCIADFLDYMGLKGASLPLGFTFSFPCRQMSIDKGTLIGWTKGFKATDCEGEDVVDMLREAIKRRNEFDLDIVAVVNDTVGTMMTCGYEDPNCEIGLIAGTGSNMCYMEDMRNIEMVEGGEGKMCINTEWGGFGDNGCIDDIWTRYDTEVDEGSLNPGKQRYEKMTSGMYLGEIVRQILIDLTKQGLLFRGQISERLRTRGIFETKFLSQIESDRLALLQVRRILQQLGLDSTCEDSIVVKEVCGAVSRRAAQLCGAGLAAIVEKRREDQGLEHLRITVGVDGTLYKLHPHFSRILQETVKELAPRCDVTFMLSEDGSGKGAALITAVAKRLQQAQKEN
# [13] = biological target: Luciferin 4-monooxygenase (Photinus pyralis, UniProt P08659); test: inhibition of purified Photinus pyralis luciferase – biochemical, luminescence, dose response (AID 1891)
# [14] = Fluorescence Cell-Based Dose Response to Identify Inhibitors of Thrombin Receptor-Activating Peptide SFLLRN-Mediated P-Selectin Induction on Platelets. [Related pubchem assays: 1663 (Primary HTS), 1889 (retest at dose ), 1891 (counterscreen), 1678 (Project Summary)]; type: functional
# [15] = Luminescence Cell-Based Dose Confirmation HTS to Identify Inhibitors of Platelet Dense Granule Release. [Related pubchem assays: 1663 (Primary HTS), 1678 (Summary of Project)]; type: functional
# Chain of Mu-type opioid receptor (P35372 whole entry): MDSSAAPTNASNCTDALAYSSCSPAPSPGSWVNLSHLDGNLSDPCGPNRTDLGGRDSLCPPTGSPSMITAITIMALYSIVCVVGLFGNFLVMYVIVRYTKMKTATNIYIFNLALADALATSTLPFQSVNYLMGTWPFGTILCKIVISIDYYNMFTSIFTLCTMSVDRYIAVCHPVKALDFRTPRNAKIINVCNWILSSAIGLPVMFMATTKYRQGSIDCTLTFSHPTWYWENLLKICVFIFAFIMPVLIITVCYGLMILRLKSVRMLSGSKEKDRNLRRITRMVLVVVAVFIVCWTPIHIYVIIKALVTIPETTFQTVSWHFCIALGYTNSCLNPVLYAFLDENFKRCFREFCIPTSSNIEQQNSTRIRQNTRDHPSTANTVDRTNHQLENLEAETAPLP
# Chain of 5-hydroxytryptamine receptor 5A (P47898 whole entry): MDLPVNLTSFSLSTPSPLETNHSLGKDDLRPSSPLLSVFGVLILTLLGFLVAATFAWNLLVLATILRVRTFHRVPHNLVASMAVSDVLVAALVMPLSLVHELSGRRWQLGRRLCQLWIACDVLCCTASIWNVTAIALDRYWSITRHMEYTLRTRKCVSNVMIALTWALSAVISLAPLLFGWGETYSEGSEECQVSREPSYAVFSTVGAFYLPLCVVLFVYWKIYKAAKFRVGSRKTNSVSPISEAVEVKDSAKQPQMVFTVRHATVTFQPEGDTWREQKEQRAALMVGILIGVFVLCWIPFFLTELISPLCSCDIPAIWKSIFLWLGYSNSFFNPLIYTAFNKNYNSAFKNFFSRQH
# Chain of Delta-type opioid receptor (P41143 whole entry): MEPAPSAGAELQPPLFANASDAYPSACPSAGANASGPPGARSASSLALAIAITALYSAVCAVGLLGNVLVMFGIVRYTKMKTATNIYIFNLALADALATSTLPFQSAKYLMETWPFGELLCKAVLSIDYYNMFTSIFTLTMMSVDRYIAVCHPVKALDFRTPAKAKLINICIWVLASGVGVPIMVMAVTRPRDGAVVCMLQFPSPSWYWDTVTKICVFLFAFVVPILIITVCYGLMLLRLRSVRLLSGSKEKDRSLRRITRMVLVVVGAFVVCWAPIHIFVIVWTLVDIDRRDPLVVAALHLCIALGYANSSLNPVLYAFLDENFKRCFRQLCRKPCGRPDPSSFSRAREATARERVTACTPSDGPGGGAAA
# Chain of Luciferin 4-monooxygenase (P08659 whole entry): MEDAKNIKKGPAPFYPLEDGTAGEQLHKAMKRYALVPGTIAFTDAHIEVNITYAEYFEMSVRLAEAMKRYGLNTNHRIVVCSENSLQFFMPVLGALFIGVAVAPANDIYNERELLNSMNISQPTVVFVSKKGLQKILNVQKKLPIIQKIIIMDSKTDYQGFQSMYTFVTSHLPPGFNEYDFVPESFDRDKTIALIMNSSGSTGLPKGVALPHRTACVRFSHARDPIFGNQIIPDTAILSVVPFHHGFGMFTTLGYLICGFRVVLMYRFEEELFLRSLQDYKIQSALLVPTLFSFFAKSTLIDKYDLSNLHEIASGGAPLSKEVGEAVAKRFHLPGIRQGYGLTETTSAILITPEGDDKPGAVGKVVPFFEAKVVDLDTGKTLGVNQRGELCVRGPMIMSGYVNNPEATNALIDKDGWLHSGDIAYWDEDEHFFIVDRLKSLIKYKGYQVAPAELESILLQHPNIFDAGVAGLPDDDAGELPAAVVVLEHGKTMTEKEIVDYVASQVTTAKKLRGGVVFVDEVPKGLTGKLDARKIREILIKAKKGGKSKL
# Chain of Galanin receptor type 2 (O43603 whole entry): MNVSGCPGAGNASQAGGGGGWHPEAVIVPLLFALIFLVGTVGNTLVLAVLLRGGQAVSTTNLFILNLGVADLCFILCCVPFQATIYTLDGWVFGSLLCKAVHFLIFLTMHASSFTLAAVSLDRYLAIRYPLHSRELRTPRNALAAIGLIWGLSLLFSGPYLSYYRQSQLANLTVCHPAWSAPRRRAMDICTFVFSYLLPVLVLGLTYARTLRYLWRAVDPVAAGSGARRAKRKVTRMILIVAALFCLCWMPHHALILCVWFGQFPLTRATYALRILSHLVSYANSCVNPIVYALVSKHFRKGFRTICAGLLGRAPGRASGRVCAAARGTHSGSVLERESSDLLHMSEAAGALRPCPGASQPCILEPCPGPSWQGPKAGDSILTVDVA
SMILES,EC50 (Mu-type opioid receptor),CC50 (Vero),EC50 [1],EC50 [2],AC50 [3],EC50 (Galanin receptor type 2),EC50 [4],IC50 (Aminopeptidase N),EC50 [5],IC50 [6],IC50 [7],EC50 (BJ [8]),EC50 (cells [9]),EC50 (cells [10]),EC50 (BJ [11]),EC50 (BJ [12]),IC50 (Hexokinase HKDC1),EC50 [13],EC50 [14],EC50 [15]
COc1cc2c3cc1Oc1cc(ccc1O)C[C@@H]1c4c(cc(OC)c(O)c4Oc4ccc(cc4)C[C@H]3N(C)CC2)CCN1C,> 92.4 µM (inactive),24.6 µM (active),1.33 µM (active),44.2 µM (inactive),35.2 µM (active),> 55.7 µM (not active),79.2 µM (inactive),15.2 µM (active),–,–,–,–,–,–,–,–,–,–,–,–
Cc1nc([N+](=O)[O-])c(Br)n1Cc1ccc(Cl)c(Cl)c1,–,17.5 µM (active),–,–,–,–,–,–,9.66 µM (inconclusive),4.39 µM (active),542 nM (active),> 150 µM (inconclusive),> 350 µM (not active),> 350 µM (not active),> 150 µM (not active),9.74 µM (inconclusive),22.8 µM (inactive),–,–,–
COC(=O)c1ccccc1NC(=O)Nc1ccc2c(c1)OCO2,–,–,–,–,–,–,–,–,–,–,–,–,–,–,–,–,–,> 112 µM (not active),< 100 µM (not active),5.7 µM (active)
